Data taken from PubChem BioAssay (NCI).
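Cells were grown in 96-well plates and exposed to each compound for 48 hours at five concentrations; endpoints were interpolated linearly between bracketing concentrations, or set to the highest concentration if not reached. Definition used: TGI = concentration required for complete inhibition of growth.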

Columns and labels:
Assay in all cases: NCI tumour cell line growth inhibition, 48 h
A498 renal = system: A498 renal
A549 NSCLC = system: A549 NSCLC
CAKI-1 renal = system: CAKI-1 renal
CCRF-CEM leukemia = system: CCRF-CEM leukemia
COLO 205 colon = system: COLO 205 colon
DLD-1 colon = system: DLD-1 colon
DMS 273 small cell lung = system: DMS 273 small cell lung
HCT-116 colon = system: HCT-116 colon
HCT-15 colon = system: HCT-15 colon
HL-60(TB) leukemia = system: HL-60(TB) leukemia
HOP-18 NSCLC = system: HOP-18 NSCLC
HOP-62 NSCLC = system: HOP-62 NSCLC
HOP-92 NSCLC = system: HOP-92 NSCLC
HT29 colon = system: HT29 colon
IGROV1 ovarian = system: IGROV1 ovarian
K-562 leukemia = system: K-562 leukemia
KM12 colon = system: KM12 colon
LOX IMVI melanoma = system: LOX IMVI melanoma
M19-MEL melanoma = system: M19-MEL melanoma
MALME-3M melanoma = system: MALME-3M melanoma
MCF7 breast = system: MCF7 breast
MOLT-4 leukemia = system: MOLT-4 leukemia
NCI-H226 lung = system: NCI-H226 lung
NCI-H23 lung = system: NCI-H23 lung
NCI-H460 lung = system: NCI-H460 lung
NCI-H522 lung = system: NCI-H522 lung
NCI/ADR-RES ovarian = system: NCI/ADR-RES ovarian
OVCAR-3 ovarian = system: OVCAR-3 ovarian
OVCAR-4 ovarian = system: OVCAR-4 ovarian
OVCAR-5 ovarian = system: OVCAR-5 ovarian
OVCAR-8 ovarian = system: OVCAR-8 ovarian
P388 leukemia = system: P388 leukemia
P388/ADR leukemia = system: P388/ADR leukemia
RPMI-8226 leukemia = system: RPMI-8226 leukemia
RXF 393 renal = system: RXF 393 renal
SF-268 CNS = system: SF-268 CNS
SF-295 CNS = system: SF-295 CNS
SF-539 CNS = system: SF-539 CNS
SK-MEL-2 melanoma = system: SK-MEL-2 melanoma
SK-MEL-28 melanoma = system: SK-MEL-28 melanoma
SK-MEL-5 melanoma = system: SK-MEL-5 melanoma
SK-OV-3 ovarian = system: SK-OV-3 ovarian
SN12C renal = system: SN12C renal
SN12K1 renal = system: SN12K1 renal
SNB-19 CNS = system: SNB-19 CNS
SNB-75 CNS = system: SNB-75 CNS
SNB-78 CNS = system: SNB-78 CNS
SW-620 colon = system: SW-620 colon
U251 CNS = system: U251 CNS
UACC-257 melanoma = system: UACC-257 melanoma
UACC-62 melanoma = system: UACC-62 melanoma
UO-31 renal = system: UO-31 renal
XF 498 CNS = system: XF 498 CNS
ACHN renal = system: ACHN renal
DMS 114 small cell lung = system: DMS 114 small cell lung
HCC-2998 colon = system: HCC-2998 colon
LXFL 529 NSCLC = system: LXFL 529 NSCLC
RXF-631 renal = system: RXF-631 renal
SR leukemia = system: SR leukemia
TK-10 renal = system: TK-10 renal
786-0 renal = system: 786-0 renal
EKVX NSCLC = system: EKVX NSCLC
KM20L2 colon = system: KM20L2 colon
M14 melanoma = system: M14 melanoma

Measured: TGI

O=C(NC(Cc1ccc(Cl)cc1)C(=O)O)c1ccc(I)cc1 (configuration not stated)
> 100 µM: A498 renal | A549 NSCLC | CAKI-1 renal | CCRF-CEM leukemia | COLO 205 colon | DLD-1 colon | DMS 273 small cell lung | HCT-116 colon | HCT-15 colon | HL-60(TB) leukemia | HOP-18 NSCLC | HOP-62 NSCLC | HOP-92 NSCLC | HT29 colon | IGROV1 ovarian | K-562 leukemia | KM12 colon | LOX IMVI melanoma | M19-MEL melanoma | MALME-3M melanoma | MCF7 breast | MOLT-4 leukemia | NCI-H226 lung | NCI-H23 lung | NCI-H460 lung | NCI-H522 lung | NCI/ADR-RES ovarian | OVCAR-3 ovarian | OVCAR-4 ovarian | OVCAR-5 ovarian | OVCAR-8 ovarian | P388 leukemia | P388/ADR leukemia | RPMI-8226 leukemia | RXF 393 renal | SF-268 CNS | SF-295 CNS | SF-539 CNS | SK-MEL-2 melanoma | SK-MEL-28 melanoma | SK-MEL-5 melanoma | SK-OV-3 ovarian | SN12C renal | SN12K1 renal | SNB-19 CNS | SNB-75 CNS | SNB-78 CNS | SW-620 colon | U251 CNS | UACC-257 melanoma | UACC-62 melanoma | UO-31 renal | XF 498 CNS

CN1NC(c2ccccc2)=C(C#N)C(=O)CC1c1ccc(F)cc1 (configuration not stated)
> 100 µM: A498 renal | A549 NSCLC | ACHN renal | CAKI-1 renal | CCRF-CEM leukemia | COLO 205 colon | DLD-1 colon | DMS 114 small cell lung | DMS 273 small cell lung | HCC-2998 colon | HCT-116 colon | HCT-15 colon | HL-60(TB) leukemia | HOP-18 NSCLC | HOP-92 NSCLC | HT29 colon | KM12 colon | LOX IMVI melanoma | LXFL 529 NSCLC | MALME-3M melanoma | MOLT-4 leukemia | NCI-H226 lung | NCI-H23 lung | NCI-H460 lung | NCI-H522 lung | OVCAR-4 ovarian | OVCAR-5 ovarian | RPMI-8226 leukemia | RXF 393 renal | RXF-631 renal | SF-268 CNS | SF-295 CNS | SK-MEL-2 melanoma | SK-MEL-28 melanoma | SK-MEL-5 melanoma | SK-OV-3 ovarian | SN12C renal | SNB-19 CNS | SNB-75 CNS | SNB-78 CNS | SR leukemia | SW-620 colon | TK-10 renal | U251 CNS | UACC-257 melanoma | XF 498 CNS

CCCCCCCCCCCCC(Br)C(C)=O (configuration not stated)
> 100 µM: 786-0 renal | A498 renal | A549 NSCLC | ACHN renal | CCRF-CEM leukemia | COLO 205 colon | DLD-1 colon | DMS 114 small cell lung | DMS 273 small cell lung | EKVX NSCLC | HCC-2998 colon | HCT-116 colon | HCT-15 colon | HL-60(TB) leukemia | HOP-18 NSCLC | HOP-62 NSCLC | HOP-92 NSCLC | HT29 colon | IGROV1 ovarian | KM12 colon | KM20L2 colon | LOX IMVI melanoma | LXFL 529 NSCLC | M14 melanoma | M19-MEL melanoma | MALME-3M melanoma | NCI-H226 lung | NCI-H23 lung | NCI-H460 lung | NCI-H522 lung | OVCAR-3 ovarian | OVCAR-4 ovarian | OVCAR-5 ovarian | OVCAR-8 ovarian | RXF 393 renal | RXF-631 renal | SF-268 CNS | SF-295 CNS | SF-539 CNS | SK-MEL-2 melanoma | SK-MEL-28 melanoma | SK-MEL-5 melanoma | SK-OV-3 ovarian | SN12C renal | SNB-19 CNS | SNB-78 CNS | SW-620 colon | TK-10 renal | U251 CNS | UACC-257 melanoma | UACC-62 melanoma | UO-31 renal | XF 498 CNS
